For the test, the target named is Ubiquitin carboxyl-terminal hydrolase 8 (Homo sapiens) (UniProt P40818). As to the kind of experiment: Ubiquitin-specific protease 8 inhibitors, concentration-effect, biochemical, validation of initial actives (AID 1645862).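 Note: potency reflects inhibition of USP8 cleavage of a ubiquitin rhodamine substrate.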 Particulars: recombinant USP8 deubiquitinase activity assay.

Calls of active or inactive are those of the source. The rule behind the calls is not given here. Some results are limits rather than exact numbers.

Ubiquitin carboxyl-terminal hydrolase 8 (Homo sapiens), sequence (P40818 whole entry, looked up): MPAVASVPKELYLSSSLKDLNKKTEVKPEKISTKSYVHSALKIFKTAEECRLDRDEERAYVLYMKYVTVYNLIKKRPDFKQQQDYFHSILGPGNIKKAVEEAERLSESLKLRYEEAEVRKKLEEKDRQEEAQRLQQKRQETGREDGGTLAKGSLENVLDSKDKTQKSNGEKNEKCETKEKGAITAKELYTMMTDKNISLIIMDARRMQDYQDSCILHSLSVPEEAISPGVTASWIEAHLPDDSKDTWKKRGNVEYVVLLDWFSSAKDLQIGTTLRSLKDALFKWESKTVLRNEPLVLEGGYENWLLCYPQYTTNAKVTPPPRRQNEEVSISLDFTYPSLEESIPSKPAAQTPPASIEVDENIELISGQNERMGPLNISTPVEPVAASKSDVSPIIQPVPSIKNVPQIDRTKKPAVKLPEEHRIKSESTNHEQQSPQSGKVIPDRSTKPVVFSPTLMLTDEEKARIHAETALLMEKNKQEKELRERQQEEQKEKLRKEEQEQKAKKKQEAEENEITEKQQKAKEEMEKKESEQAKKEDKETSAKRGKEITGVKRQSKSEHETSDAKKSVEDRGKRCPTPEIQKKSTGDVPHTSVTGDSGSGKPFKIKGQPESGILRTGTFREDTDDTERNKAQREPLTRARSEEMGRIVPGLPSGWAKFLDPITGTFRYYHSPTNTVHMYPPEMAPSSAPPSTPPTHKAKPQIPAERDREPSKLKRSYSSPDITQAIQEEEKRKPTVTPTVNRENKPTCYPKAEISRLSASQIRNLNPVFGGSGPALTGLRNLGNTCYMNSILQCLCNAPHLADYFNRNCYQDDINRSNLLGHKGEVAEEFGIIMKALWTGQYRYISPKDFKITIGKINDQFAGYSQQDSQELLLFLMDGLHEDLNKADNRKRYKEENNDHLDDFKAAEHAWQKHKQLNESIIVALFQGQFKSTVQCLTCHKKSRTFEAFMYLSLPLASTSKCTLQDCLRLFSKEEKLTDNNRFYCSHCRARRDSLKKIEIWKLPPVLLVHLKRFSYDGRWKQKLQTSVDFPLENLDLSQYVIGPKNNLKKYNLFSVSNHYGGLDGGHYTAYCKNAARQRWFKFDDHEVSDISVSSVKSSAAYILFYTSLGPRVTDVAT

As usually defined, the IC50 is the concentration that inhibits the measured activity by half. With `Cc1cccc(NC(=O)Nc2ccccc2OCc2cc(=O)n3cccc(C)c3n2)c1`, the IC50 was > 40 µM (inactive).

Consider `CCc1ccc(OCCn2c(CCNC(=O)C3CCCCC3)nc3ccccc32)cc1`, for which the IC50 is > 40 µM (inactive).

Take `Cc1ccc(NC(=O)Cn2cnc3c(c(C)c(C)n3-c3ccccc3)c2=O)c(C)c1`: the IC50 is > 40 µM (inactive).

For the compound `CCOc1ccc(Oc2nc(CN3CCCC3)nc3sc(C)c(C)c23)cc1`, the IC50 is > 40 µM (inactive).

As to `c1cncc(-c2cnc3sc(NCc4ccc5c(c4)OCO5)nn23)c1`, the IC50 was > 40 µM (inactive).

As to `CN(C)c1ccc(S(=O)(=O)N2CCCCC2)cc1NC(=O)COc1ccccc1`, the IC50 was > 40 µM (inactive).

On to `CCOc1ccc2cc3c(nc2c1)OC(=O)N(Cc1ccc(OC)cc1)C3`, for which the IC50 is 9.25 µM.

Turning to `Cc1ccc(N2CC(C(=O)Nc3cccc(-c4noc(C)n4)c3)CC2=O)cc1` (configuration not stated), the IC50 was > 40 µM (inactive).

As for `COC(=O)c1ccc(Cn2nnc3c(=O)[nH]c(C4CCCN(S(=O)(=O)c5ccc(C)cc5)C4)nc32)cc1` (configuration not stated), the IC50 is > 40 µM (inactive).

As for `Cc1ccc(N2CC(c3nc4ccccc4n3CCOc3cccc(C)c3)CC2=O)cc1` (configuration not stated), the IC50 was > 40 µM (inactive).

As for `CCc1nnc(-c2ccc3ccn(CC(=O)N4CCN(c5ccccn5)CC4)c3c2)o1`, the IC50 was > 40 µM (inactive).

As to `COc1ccc(C(=O)Nc2nc(-c3ccc4c(c3)NC(=O)CO4)c(C)s2)cc1OC`, the IC50 is > 40 µM (inactive).

`COc1ccc(CCC(=O)Nc2nnc(C3CC(=O)N(c4ccccc4)C3)s2)cc1` (configuration not stated): the IC50 was > 40 µM (inactive).

In the case of `COc1ccc2cc(C(=O)N3CCC(C(C)C(=O)NCc4cccc(F)c4)CC3)[nH]c2c1` (configuration not stated), the IC50 is > 40 µM (inactive).

`O=C(NCCN1CCOCC1)c1cn2cc(Cl)ccc2n1`: the IC50 is > 40 µM (inactive).

`CCc1ccc(-n2c(C)cc(/C=C3\C(=N)N4N=CSC4=NC3=O)c2C)cc1`: the IC50 is > 40 µM (inactive).

With `CNc1ccc(-c2noc([C@@H]3CCCN3Cc3cccc(C#N)c3)n2)cn1`, the IC50 is > 40 µM (inactive).

As for `COC(=O)c1ccc2c(=O)n(CCCCCC(=O)NCCc3ccc(OC)c(OC)c3)c(=O)[nH]c2c1`, the IC50 is > 40 µM (inactive).

As for `Cc1noc(/C=C/Nc2cc(Cl)cc(Cl)c2)c1[N+](=O)[O-]`, the IC50 is > 40 µM (inactive).

Consider `Cc1ccc(CNC(=O)CCCn2c(=O)c3sccc3n(CC(=O)OCc3ccccc3)c2=O)cc1`, for which the IC50 was > 40 µM (inactive).

Take `CCOc1ncccc1C(=O)Nc1ccnn1Cc1ccccc1`: the IC50 is > 40 µM (inactive).

Take `O=C(c1cscn1)N1CCC2(CC1)CC1(CO2)Nc2ccccc2-n2cccc21` (configuration not stated): the IC50 is > 40 µM (inactive).

Regarding `CCOc1ccc2c(c1)c(=O)c(C(=O)c1ccccc1)cn2CC(=O)Nc1ccc(OC)cc1`, the IC50 is > 40 µM (inactive).

Regarding `CCCCOc1ccc(C(=O)n2ccn(S(=O)(=O)c3ccc(C)cc3)c2=O)cc1`, the IC50 was > 40 µM (inactive).

In the case of `COc1ccc(NC(=O)c2[nH]nc3c2COc2ccccc2-3)c(OC)c1`, the IC50 is > 40 µM (inactive).

On to `Cc1cccc(NC(=O)CSc2nnc(-c3n[nH]c4c3CCC4)n2N)c1C`, for which the IC50 is > 40 µM (inactive).

For `CCc1ccc(CN(C)C(=O)c2ccc(NS(=O)(=O)c3ccc(F)c(F)c3)cc2)cc1`, the IC50 was > 40 µM (inactive).

Turning to `CCCCOc1ccc(-c2cc3n(c(=N)c2C#N)CCc2cc4c(cc2-3)OCCCO4)cc1OC`, the IC50 is > 40 µM (inactive).

Consider `COc1ccccc1CNC(=O)Cn1cnc2c(-c3ccccc3)csc2c1=O`, for which the IC50 was > 40 µM (inactive).

For the compound `CC(=O)[C@H]1c2c(c(O)c3c(O)cccc3c2-c2c3c(c(O)c4c(O)cccc24)C(=O)C[C@](C)(O)[C@H]3C(C)=O)C(=O)C[C@]1(C)O`, the IC50 is 24.5 µM.

For the compound `Cc1ccc2c(c1)c(=O)c(C(=O)c1ccccc1)cn2CC(=O)Nc1ccc2c(c1)OCO2`, the IC50 was > 40 µM (inactive).

Consider `CCOc1ccc2nc(NC(=O)c3ccc4ccccc4n3)sc2c1`, for which the IC50 was > 40 µM (inactive).

For `COc1ccccc1NC(=O)C1=C(C)Nc2nc(SCc3ccccc3F)nn2C1c1ccccn1` (configuration not stated), the IC50 is > 40 µM (inactive).

As to `CN1CCc2c(C#N)c(N3CCOCC3)nc(NCC3CCCO3)c2C1` (configuration not stated), the IC50 was > 40 µM (inactive).

For the compound `COc1cc2c(=O)n(CCC(=O)NC3CCCC3)c(=O)n(CC(=O)Nc3cccc(Cl)c3)c2cc1OC`, the IC50 is > 40 µM (inactive).

For `O=c1c2ccccc2nc(CSc2cccc(Cl)c2Cl)n1-c1ccccc1`, the IC50 is > 40 µM (inactive).

In the case of `CCc1ccc(NC(=O)Cn2c(=O)n(Cc3ccccc3)c(=O)c3nn(CC)cc32)cc1`, the IC50 is > 40 µM (inactive).

Turning to `COc1ccc([C@H]2Oc3cc(OC)cc(O)c3C(=O)[C@@H]2[C@@H]2C(=O)c3c(O)cc(O)cc3O[C@H]2c2ccc(OC)cc2)cc1`, the IC50 is > 40 µM (inactive).

On to `COc1ccccc1-c1noc(CCCC(=O)Nc2ccccc2)n1`, for which the IC50 was > 40 µM (inactive).

Take `Nc1ncnc2c1ncn2[C@@H]1O[C@H](CO)C[C@@H]1O`: the IC50 was > 40 µM (inactive).

Regarding `Cc1cccc(OCC2=NN3C(=N)/C(=C\c4cc(C)n(-c5cc(C)cc(C)c5)c4C)C(=O)N=C3S2)c1`, the IC50 is > 40 µM (inactive).

`Cc1nc(-c2ccc(C(=O)Nc3ccc(F)cc3)cc2)cs1`: the IC50 was > 40 µM (inactive).

`NC(=O)c1nc(-c2cccnc2)nc2c1[nH]c(=O)n2-c1ccc2c(c1)OCO2`: the IC50 is > 40 µM (inactive).

Regarding `Cc1cc(C(=O)NC2(O)C(=O)c3ccccc3C2=O)n(C)n1`, the IC50 is 8.2 µM.

Regarding `COc1ccc(OC)c(NC(=O)Cn2c(=O)n(C3CCCCC3)c(=O)c3ccccc32)c1`, the IC50 is > 40 µM (inactive).

In the case of `CCOc1ccccc1NC(=O)Cn1c(=O)n(CCC(=O)NCCc2ccc(OC)c(OC)c2)c(=O)c2ccccc21`, the IC50 was > 40 µM (inactive).

For `Cn1cc2cccc(NC(=O)c3ccc(F)cc3)c2n1`, the IC50 was > 40 µM (inactive).

`CC(C)=CCc1c(O)cc2c(c1C)OC(=O)c1c(C)c(Cl)c(O)c(CO)c1O2`: the IC50 was > 40 µM (inactive).

As for `O=C(Cn1cnc(-c2ccccc2)cc1=O)Nc1ccc(Oc2ccccc2)cc1`, the IC50 was > 40 µM (inactive).

Take `N#Cc1ccc(NC(=O)Nc2cccn(Cc3c(F)cccc3Cl)c2=O)cc1`: the IC50 was > 40 µM (inactive).

In the case of `Cc1ccc(NC(=O)Cc2nnc3cc(-c4nc(C)no4)ccn23)cc1`, the 50% inhibitory concentration (IC50) was 21.3 µM.

As to `O=C(Cn1c(COc2ccccc2)nc2ccccc21)Nc1cc(Cl)ccc1Cl`, the IC50 was > 40 µM (inactive).

With `CCCCCCCCC/C=C/C(=O)CCc1c(O)c(C=O)c2c(c1O)C(=O)OC2O` (configuration not stated), the half-maximal inhibitory concentration (IC50) is 0.514 µM.

For the compound `COc1cc(OC)cc(N2C(=O)N(CC(=O)c3ccc(Br)cc3)c3ccccc3S2(=O)=O)c1`, the IC50 is > 40 µM (inactive).

On to `COc1ccc2[nH]c(=O)c(CN(C)C(=O)c3ccc([N+](=O)[O-])cc3)cc2c1`, for which the IC50 is > 40 µM (inactive).

As to `O=C(NC(Cc1ccccc1)c1nc2ccccc2[nH]1)C1CC1` (configuration not stated), the IC50 is 24.4 µM.

For the compound `Cc1cccc(C)c1NC(=O)COc1ccccc1-c1nnc(-c2ccccc2)o1`, the IC50 is > 40 µM (inactive).

The record behind these values is PubChem BioAssay AID1645862 (Buhrlage Lab, Dana-Farber Cancer Institute and Novartis …, 2021).
